# ± gives the expanded uncertainty stated by the source.
# Test: xn = mol fraction of the nth substance listed
# Details: Liquid, Pulse-echo method
structure (smiles),measurement,setting,value
CCCCCCC [heptane] + CCCO,speed of sound,"293.1 K, 45590 kPa, x2 = 0.6027",1414.5 ± 1.1 m/s
same,speed of sound,"293.1 K, 91190 kPa, x2 = 0.1008",1599 ± 1.3 m/s
same,speed of sound,"293.1 K, 91190 kPa, x2 = 0.3008",1594.3 ± 1.2 m/s
same,speed of sound,"293.1 K, 111450 kPa, x2 = 0",1674.3 ± 1.3 m/s
same,speed of sound,"293.11 K, 45590 kPa, x2 = 0.1008",1412 ± 1.2 m/s
same,speed of sound,"293.11 K, 121580 kPa, x2 = 0.7986",1691.8 ± 1.3 m/s
same,speed of sound,"293.12 K, 100 kPa, x2 = 0.4992",1158.2 ± 1.1 m/s
same,speed of sound,"293.12 K, 30400 kPa, x2 = 0.7986",1355.6 ± 1.1 m/s
same,speed of sound,"293.12 K, 45590 kPa, x2 = 0.7986",1424 ± 1.1 m/s
same,speed of sound,"293.12 K, 75990 kPa, x2 = 0.7986",1543.1 ± 1.2 m/s
same,speed of sound,"293.13 K, 100 kPa, x2 = 0.6027",1164.9 ± 1.1 m/s
same,speed of sound,"293.13 K, 30400 kPa, x2 = 0.6027",1343.3 ± 1.1 m/s
same,speed of sound,"293.13 K, 45590 kPa, x2 = 0.4992",1412.6 ± 1.1 m/s
same,speed of sound,"293.13 K, 60790 kPa, x2 = 0.7986",1486.1 ± 1.1 m/s
same,speed of sound,"293.13 K, 75990 kPa, x2 = 0.1008",1541.8 ± 1.2 m/s
same,speed of sound,"293.13 K, 121580 kPa, x2 = 0.1008",1701.6 ± 1.3 m/s
same,speed of sound,"293.14 K, 100 kPa, x2 = 0.7016",1173.8 ± 1 m/s
same,speed of sound,"293.14 K, 100 kPa, x2 = 0.7986",1185.8 ± 1 m/s
same,speed of sound,"293.14 K, 60790 kPa, x2 = 0.6027",1478.7 ± 1.2 m/s
same,speed of sound,"293.14 K, 91190 kPa, x2 = 0.6027",1592.5 ± 1.2 m/s
same,speed of sound,"293.14 K, 101320 kPa, x2 = 0.1008",1634.7 ± 1.3 m/s
same,speed of sound,"293.14 K, 111450 kPa, x2 = 0.3008",1663.3 ± 1.3 m/s
same,speed of sound,"293.14 K, 111450 kPa, x2 = 0.7986",1661.2 ± 1.2 m/s
same,speed of sound,"293.15 K, 100 kPa, x2 = 0",1151.7 ± 1.1 m/s
same,speed of sound,"293.15 K, 75990 kPa, x2 = 0.6027",1537.8 ± 1.2 m/s
same,speed of sound,"293.15 K, 111450 kPa, x2 = 0.1008",1668.9 ± 1.3 m/s
same,speed of sound,"293.16 K, 30400 kPa, x2 = 0.7016",1348.5 ± 1.1 m/s
same,speed of sound,"293.16 K, 60790 kPa, x2 = 0.4992",1478 ± 1.2 m/s
same,speed of sound,"293.16 K, 75990 kPa, x2 = 0.4992",1537.8 ± 1.2 m/s
same,speed of sound,"293.16 K, 91190 kPa, x2 = 0.7986",1595.9 ± 1.2 m/s
same,speed of sound,"293.16 K, 101320 kPa, x2 = 0.3008",1629.5 ± 1.3 m/s
same,speed of sound,"293.16 K, 111450 kPa, x2 = 0.6027",1659.8 ± 1.2 m/s
same,speed of sound,"293.16 K, 121580 kPa, x2 = 0",1707.1 ± 1.4 m/s
same,speed of sound,"293.16 K, 121580 kPa, x2 = 0.7016",1691 ± 1.3 m/s
same,speed of sound,"293.17 K, 30400 kPa, x2 = 0.4992",1340.5 ± 1.1 m/s
same,speed of sound,"293.17 K, 45590 kPa, x2 = 0.7016",1418.3 ± 1.1 m/s
same,speed of sound,"293.17 K, 101320 kPa, x2 = 0.7986",1629.2 ± 1.2 m/s
same,speed of sound,"293.17 K, 121580 kPa, x2 = 0.3008",1695.5 ± 1.3 m/s
same,speed of sound,"293.18 K, 30400 kPa, x2 = 0",1341.5 ± 1.2 m/s
same,speed of sound,"293.18 K, 60790 kPa, x2 = 0.7016",1481.6 ± 1.1 m/s
same,speed of sound,"293.18 K, 101320 kPa, x2 = 0.6027",1626.9 ± 1.2 m/s
same,speed of sound,"293.18 K, 111450 kPa, x2 = 0.7016",1659.9 ± 1.2 m/s
same,speed of sound,"293.18 K, 121580 kPa, x2 = 0.6027",1691.2 ± 1.3 m/s
same,speed of sound,"293.19 K, 45590 kPa, x2 = 0",1416.6 ± 1.2 m/s
same,speed of sound,"293.19 K, 60790 kPa, x2 = 0.1008",1479.6 ± 1.2 m/s
same,speed of sound,"293.19 K, 60790 kPa, x2 = 0.3008",1476.8 ± 1.2 m/s
same,speed of sound,"293.19 K, 91190 kPa, x2 = 0.4992",1592.6 ± 1.2 m/s
same,speed of sound,"293.19 K, 101320 kPa, x2 = 0.7016",1627.5 ± 1.2 m/s
same,speed of sound,"293.2 K, 15200 kPa, x2 = 0",1256.3 ± 1.1 m/s
same,speed of sound,"293.2 K, 60790 kPa, x2 = 0",1484.5 ± 1.2 m/s
same,speed of sound,"293.2 K, 75990 kPa, x2 = 0",1546.5 ± 1.3 m/s
same,speed of sound,"293.2 K, 75990 kPa, x2 = 0.3008",1537.7 ± 1.2 m/s
same,speed of sound,"293.2 K, 75990 kPa, x2 = 0.7016",1539.8 ± 1.2 m/s
same,speed of sound,"293.2 K, 91190 kPa, x2 = 0",1603.7 ± 1.3 m/s
same,speed of sound,"293.2 K, 91190 kPa, x2 = 0.7016",1593.7 ± 1.2 m/s
same,speed of sound,"293.2 K, 101320 kPa, x2 = 0",1639.7 ± 1.3 m/s
same,speed of sound,"293.21 K, 100 kPa, x2 = 0.3008",1149.9 ± 1.1 m/s
same,speed of sound,"293.21 K, 30400 kPa, x2 = 0.3008",1336.5 ± 1.1 m/s
same,speed of sound,"293.21 K, 101320 kPa, x2 = 0.4992",1627.3 ± 1.2 m/s
same,speed of sound,"293.21 K, 111450 kPa, x2 = 0.4992",1660.5 ± 1.3 m/s
same,speed of sound,"293.22 K, 100 kPa, x2 = 0.1008",1147.3 ± 1.1 m/s
same,speed of sound,"293.22 K, 15200 kPa, x2 = 0.1008",1252 ± 1.1 m/s
same,speed of sound,"293.22 K, 30400 kPa, x2 = 0.1008",1337 ± 1.1 m/s
same,speed of sound,"293.22 K, 45590 kPa, x2 = 0.3008",1410.2 ± 1.2 m/s
same,speed of sound,"293.23 K, 121580 kPa, x2 = 0.4992",1692.2 ± 1.3 m/s
same,speed of sound,"298.06 K, 121580 kPa, x2 = 0.6027",1679 ± 1.3 m/s
same,speed of sound,"298.1 K, 101320 kPa, x2 = 0.3008",1616 ± 1.3 m/s
same,speed of sound,"298.11 K, 75990 kPa, x2 = 0",1531.6 ± 1.3 m/s
same,speed of sound,"298.13 K, 100 kPa, x2 = 0.4992",1137 ± 1.1 m/s
same,speed of sound,"298.13 K, 101320 kPa, x2 = 0.4992",1614.4 ± 1.2 m/s
same,speed of sound,"298.13 K, 111450 kPa, x2 = 0",1660.5 ± 1.5 m/s
same,speed of sound,"298.13 K, 111450 kPa, x2 = 0.6027",1647.1 ± 1.2 m/s
same,speed of sound,"298.13 K, 111450 kPa, x2 = 0.7986",1649.2 ± 1.2 m/s
same,speed of sound,"298.14 K, 91190 kPa, x2 = 0.4992",1579.3 ± 1.2 m/s
same,speed of sound,"298.14 K, 111450 kPa, x2 = 0.3008",1650.1 ± 1.3 m/s
same,speed of sound,"298.14 K, 121580 kPa, x2 = 0",1692.4 ± 1.4 m/s
same,speed of sound,"298.14 K, 121580 kPa, x2 = 0.1008",1688.8 ± 1.3 m/s
same,speed of sound,"298.14 K, 121580 kPa, x2 = 0.4992",1679.9 ± 1.3 m/s
same,speed of sound,"298.15 K, 100 kPa, x2 = 0.1008",1125.7 ± 1.1 m/s
same,speed of sound,"298.15 K, 30400 kPa, x2 = 0.4992",1323.2 ± 1.1 m/s
same,speed of sound,"298.15 K, 30400 kPa, x2 = 0.7986",1339.6 ± 1.1 m/s
same,speed of sound,"298.15 K, 60790 kPa, x2 = 0.4992",1462.7 ± 1.2 m/s
same,speed of sound,"298.15 K, 75990 kPa, x2 = 0.4992",1523.3 ± 1.2 m/s
same,speed of sound,"298.15 K, 91190 kPa, x2 = 0",1589.4 ± 1.3 m/s
same,speed of sound,"298.15 K, 101320 kPa, x2 = 0.6027",1613.9 ± 1.2 m/s
same,speed of sound,"298.15 K, 111450 kPa, x2 = 0.4992",1647.9 ± 1.3 m/s
same,speed of sound,"298.15 K, 121580 kPa, x2 = 0.3008",1682.7 ± 1.3 m/s
same,speed of sound,"298.16 K, 100 kPa, x2 = 0",1129.9 ± 1.1 m/s
same,speed of sound,"298.16 K, 45590 kPa, x2 = 0.1008",1395.7 ± 1.2 m/s
same,speed of sound,"298.16 K, 45590 kPa, x2 = 0.4992",1396.7 ± 1.1 m/s
same,speed of sound,"298.16 K, 45590 kPa, x2 = 0.7986",1408.9 ± 1.1 m/s
same,speed of sound,"298.16 K, 101320 kPa, x2 = 0",1625.7 ± 1.3 m/s
same,speed of sound,"298.16 K, 101320 kPa, x2 = 0.1008",1620.6 ± 1.3 m/s
same,speed of sound,"298.16 K, 111450 kPa, x2 = 0",1660.4 ± 1.5 m/s
same,speed of sound,"298.17 K, 100 kPa, x2 = 0.7986",1166.7 ± 1 m/s
same,speed of sound,"298.17 K, 15200 kPa, x2 = 0.1008",1232.9 ± 1.1 m/s
same,speed of sound,"298.17 K, 30400 kPa, x2 = 0.1008",1319.5 ± 1.1 m/s

# Source: the NIST ThermoML archive (doi:10.1021/je030136n)
